Assay results: PubChem BioAssay (NCI)
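Five compound concentrations were applied to cells in 96-well plates for 48 hours; endpoints were derived by simple linear interpolation of the resulting dose-response curve. At the GI50, growth is halved. TGI: total growth inhibition.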

Key:
Assay in all cases: NCI anticancer screen, dose series, 48 h
SK-OV-3 ovarian = system: SK-OV-3 ovarian
NCI-H522 lung = system: NCI-H522 lung
OVCAR-3 ovarian = system: OVCAR-3 ovarian
SK-MEL-28 melanoma = system: SK-MEL-28 melanoma
U251 CNS = system: U251 CNS
SK-MEL-5 melanoma = system: SK-MEL-5 melanoma
NCI-H460 lung = system: NCI-H460 lung
EKVX NSCLC = system: EKVX NSCLC
786-0 renal = system: 786-0 renal
SW-620 colon = system: SW-620 colon

Row | Structure (SMILES) | GI50 (SK-OV-3 ovarian) | TGI (SK-OV-3 ovarian) | GI50 (NCI-H522 lung) | TGI (NCI-H522 lung) | GI50 (OVCAR-3 ovarian) | TGI (OVCAR-3 ovarian) | GI50 (SK-MEL-28 melanoma) | TGI (SK-MEL-28 melanoma) | GI50 (U251 CNS) | TGI (U251 CNS) | GI50 (SK-MEL-5 melanoma) | TGI (SK-MEL-5 melanoma) | GI50 (NCI-H460 lung) | TGI (NCI-H460 lung) | GI50 (EKVX NSCLC) | TGI (EKVX NSCLC) | GI50 (786-0 renal) | TGI (786-0 renal) | GI50 (SW-620 colon) | TGI (SW-620 colon)
1 | Cc1ccc(C(=O)Nc2ccc(CN3CCN(C)CC3)c(C(F)(F)F)c2)cc1C#Cc1cnc(N)cc1C#N | 0.186 µM | 2.5 µM | 0.176 µM | 0.925 µM | 0.211 µM | 1.01 µM | 0.106 µM | 0.701 µM | 0.222 µM | 0.997 µM | 0.741 µM | 1.43 µM | 0.0915 µM | 0.968 µM | 0.366 µM | 1.44 µM | 0.162 µM | 0.826 µM | 0.33 µM | 1.15 µM
2 | COP(=O)(OC)C(NC(c1ccccc1)c1ccccc1)c1ccc2c(c1)OCO2 (stereo not given) | 40.7 µM | > 100 µM | 24.5 µM | 70 µM | 22.1 µM | 50.2 µM | 21.5 µM | 44.8 µM | 30.8 µM | > 100 µM | 16.9 µM | 30.5 µM | 20.1 µM | 42 µM | 31.4 µM | 92.6 µM | 29.5 µM | 74.9 µM | 31.7 µM | > 100 µM
3 | CCCC1c2c(ccc3ccccc23)Oc2ccc3ccccc3c21 |  | > 100 µM |  | 80.4 µM |  | > 100 µM |  | > 100 µM |  | > 100 µM |  | > 100 µM |  | > 100 µM |  | > 100 µM |  | > 100 µM |  | > 100 µM
4 | O=C(O)c1ccc2c(c1)Cc1cc([N+](=O)[O-])ccc1-2 |  | > 100 µM |  | > 100 µM |  | > 100 µM |  | > 100 µM |  | > 100 µM |  | > 100 µM |  | > 100 µM |  | > 100 µM |  | > 100 µM |  | > 100 µM
5 | Clc1ccc(Cl)c2[s+]snc12 |  | > 100 µM |  | 44 µM |  | > 100 µM |  | > 100 µM |  | > 100 µM |  | > 100 µM |  | > 88.3 µM |  | > 100 µM |  | > 56.1 µM |  | > 51.9 µM
6 | COc1cc(Nc2nc3cc(N)cc(N)c3nc2-c2ccccc2)cc(OC)c1 | 6.55 µM | 40.2 µM | 9.51 µM | 28.8 µM | 3.9 µM | 20.1 µM | 14.7 µM | 89.3 µM | 22.9 µM | > 100 µM | 10.5 µM | 30 µM | 7.91 µM | 52.8 µM | 13.3 µM | 64.4 µM | 17.7 µM | 50.8 µM | 27.2 µM | > 100 µM
7 | CCN(CC)c1ccc(/C=C\c2cc(C)c3cc(C)ccc3n2)cc1 | 4.63 µM | > 100 µM | 1.49 µM | 5.19 µM | 3.24 µM | 12.4 µM | 5.17 µM | > 100 µM | 5.35 µM | > 100 µM | 1.71 µM | 4.57 µM | 3.51 µM | 24.5 µM | 45.6 µM | > 100 µM | 3.98 µM | > 100 µM | 3.52 µM | > 100 µM
8 | C[C@]12CCC3[C@@H](C[C@@H]4SC(Nc5ccccc5)=N[C@@]45CC(=O)CC[C@]35C)[C@@H]1CCC2=O (stereo not given in full) | 34 µM | > 100 µM | 6.6 µM | 23.6 µM | 4.41 µM | 50.8 µM | 20.5 µM | > 100 µM | 4.41 µM | 19.3 µM | 10.2 µM | 26 µM | 4.65 µM | 27.9 µM | 38.8 µM | > 100 µM | 3.02 µM | 13.1 µM | 3.38 µM | 15.6 µM
9 | Cc1ccc2c(c1)nc(C(=O)c1ccco1)c(C(F)(F)F)[n+]2[O-] | > 100 µM | > 100 µM | 66.7 µM | > 100 µM | > 100 µM | > 100 µM | > 100 µM | > 100 µM | > 100 µM | > 100 µM | 1.6 µM | 2.94 µM | > 100 µM | > 100 µM | 57.5 µM | > 100 µM | > 100 µM | > 100 µM | 1.75 µM | 3.33 µM
10 | C=C1C(=O)O[C@H]2[C@H]1CC/C(COC(=O)NCc1cc3ccccc3[nH]1)=C\CC[C@@]1(C)O[C@@H]21 | 13.8 µM | 26.8 µM | 1.5 µM | 3.29 µM | 1.69 µM | 3.52 µM | 1.74 µM | 3.36 µM | 4.59 µM | 16.4 µM | 2.98 µM | 9.71 µM | 3.78 µM | 14.6 µM | 1.64 µM | 3.53 µM | 1.76 µM | 3.52 µM | 1.72 µM | 3.84 µM
11 | Cc1ccc(C(CN(C)C)C(=O)c2ccccc2)cc1 (stereo not given) | 14.7 µM | 31.3 µM | 1.8 µM | 3.52 µM | 1.86 µM | 3.55 µM | 2.83 µM | 8.37 µM | 3.4 µM | 12.8 µM | 3.67 µM | 13.6 µM | 7.38 µM | 21.9 µM | 4.63 µM | 23.1 µM | 2.12 µM | 4 µM | 0.894 µM | 2.71 µM
12 | CC(O)/C=C/C(CCC(C)CO)C(C)C (stereo not given) |  | > 100 µM |  | > 100 µM |  | > 100 µM |  | > 100 µM |  | > 100 µM |  | > 100 µM |  | > 100 µM |  | > 100 µM |  | > 100 µM |  | > 100 µM
13 | Cc1c(C#N)cccc1-c1cc(-c2cn(Cc3cccc(C(C)(C)O)n3)nn2)nc(N)n1 | 48.8 µM | > 100 µM | 12.4 µM | > 100 µM | 17.6 µM | > 100 µM | 39.1 µM | > 100 µM | 39.8 µM | > 100 µM | 15 µM | 35.1 µM | 44.9 µM | > 100 µM | 27.8 µM | > 100 µM | 32 µM | > 100 µM | 51.3 µM | > 100 µM
